These results are taken from US7723304B2, “Systems for delivery and release of angiotensin-(1-7)” (Universidade Federal De Minas Gerais—UFMG, priority 2001, dated 2010).

For test [1], the system named is G protein-coupled receptor, MAS. Description: binding of labeled angiotensin-(1-7) in mouse kidney slices (normal or MAS knockout). The conditions noted are these: MAS knockout mice, 4 °C, autoradiography or fluorescent microscopy. The method, then: (§1) After incubation for variable intervals at 4 °C the slices were exposed to autoradioghraphic films or analysed by flourescent microscopy. […] The functional test for the absence of binding in knockout mice was made using the water diuresis model (administration of 5% of the body weight, of H2O).

The next test deals with Wistar rats. As to conditions: free (not encapsulated) peptide, 25-50 ng in the RVLM, previous studies; cited from earlier work.
Test [2] concerns G protein-coupled receptor, MAS. Nature of the test: water diuresis model in wild type and MAS knockout mice. As to conditions: MAS knockout mice, water load 5% of body weight. It counts as in vivo, mouse. The method, then: (§2) Angiotensin-(1-7) labeled with 125I or rhodamine-angiotensin-(1-7), fluorescent, were incubated with mouse kidney slices from normal or MAS knockout animals. After incubation for variable intervals at 4 °C the slices were exposed to autoradioghraphic films or analysed by flourescent microscopy. In the knockout mice the specif binding for angiotensin-(1-7) disappeared while the binding for Ang II or Ang IV, used as controls, was inaltered. The Ang_(1-7) binding in kidney slices of wild type mice was displaced by the analogues D-Ala^7-Angiotensin-(1-7) e D-Pro^7-Angiotensin-(1-7). The functional test for the absence of binding in knockout mice was made using the water diuresis model (administration of 5% of the body weight, of H2O). […] In MAS knockout mice the antidiuretic effect of Ang-(1-7) was absent.

Test [3] addresses T1, G protein-coupled receptor, MAS (Mus musculus, UniProt P30554).
T1 construct: from tissue; host or cells: mouse kidney slices (wild type; MAS knockout as control)
T1 sequence (P30554 1-324): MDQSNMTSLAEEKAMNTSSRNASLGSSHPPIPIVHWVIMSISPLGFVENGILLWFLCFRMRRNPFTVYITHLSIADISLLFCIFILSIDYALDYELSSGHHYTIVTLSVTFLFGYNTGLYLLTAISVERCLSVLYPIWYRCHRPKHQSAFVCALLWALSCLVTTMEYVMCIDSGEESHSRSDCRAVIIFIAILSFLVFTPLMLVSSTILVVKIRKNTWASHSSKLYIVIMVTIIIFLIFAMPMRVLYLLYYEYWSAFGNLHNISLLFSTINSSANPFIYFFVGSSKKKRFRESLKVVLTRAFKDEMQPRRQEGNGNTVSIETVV
The description is as above. It is filed as in vivo. The conditions noted are these: wild type mice, 4 pmol/10 g BW, water load 5% of body weight. Here is the method: as §2

Another test has as its target ACE (Homo sapiens, UniProt P12821). As to conditions: read-out: IC50 for inhibition of ACE; cited from earlier work.
The target of test [4] is T1, G protein-coupled receptor, MAS. Description: binding of labeled angiotensin-(1-7) in mouse kidney slices (normal or MAS knockout). The conditions noted are these: wild type mice. The method, then: as §1

Chain of ACE (P12821 30-1306, species assumed): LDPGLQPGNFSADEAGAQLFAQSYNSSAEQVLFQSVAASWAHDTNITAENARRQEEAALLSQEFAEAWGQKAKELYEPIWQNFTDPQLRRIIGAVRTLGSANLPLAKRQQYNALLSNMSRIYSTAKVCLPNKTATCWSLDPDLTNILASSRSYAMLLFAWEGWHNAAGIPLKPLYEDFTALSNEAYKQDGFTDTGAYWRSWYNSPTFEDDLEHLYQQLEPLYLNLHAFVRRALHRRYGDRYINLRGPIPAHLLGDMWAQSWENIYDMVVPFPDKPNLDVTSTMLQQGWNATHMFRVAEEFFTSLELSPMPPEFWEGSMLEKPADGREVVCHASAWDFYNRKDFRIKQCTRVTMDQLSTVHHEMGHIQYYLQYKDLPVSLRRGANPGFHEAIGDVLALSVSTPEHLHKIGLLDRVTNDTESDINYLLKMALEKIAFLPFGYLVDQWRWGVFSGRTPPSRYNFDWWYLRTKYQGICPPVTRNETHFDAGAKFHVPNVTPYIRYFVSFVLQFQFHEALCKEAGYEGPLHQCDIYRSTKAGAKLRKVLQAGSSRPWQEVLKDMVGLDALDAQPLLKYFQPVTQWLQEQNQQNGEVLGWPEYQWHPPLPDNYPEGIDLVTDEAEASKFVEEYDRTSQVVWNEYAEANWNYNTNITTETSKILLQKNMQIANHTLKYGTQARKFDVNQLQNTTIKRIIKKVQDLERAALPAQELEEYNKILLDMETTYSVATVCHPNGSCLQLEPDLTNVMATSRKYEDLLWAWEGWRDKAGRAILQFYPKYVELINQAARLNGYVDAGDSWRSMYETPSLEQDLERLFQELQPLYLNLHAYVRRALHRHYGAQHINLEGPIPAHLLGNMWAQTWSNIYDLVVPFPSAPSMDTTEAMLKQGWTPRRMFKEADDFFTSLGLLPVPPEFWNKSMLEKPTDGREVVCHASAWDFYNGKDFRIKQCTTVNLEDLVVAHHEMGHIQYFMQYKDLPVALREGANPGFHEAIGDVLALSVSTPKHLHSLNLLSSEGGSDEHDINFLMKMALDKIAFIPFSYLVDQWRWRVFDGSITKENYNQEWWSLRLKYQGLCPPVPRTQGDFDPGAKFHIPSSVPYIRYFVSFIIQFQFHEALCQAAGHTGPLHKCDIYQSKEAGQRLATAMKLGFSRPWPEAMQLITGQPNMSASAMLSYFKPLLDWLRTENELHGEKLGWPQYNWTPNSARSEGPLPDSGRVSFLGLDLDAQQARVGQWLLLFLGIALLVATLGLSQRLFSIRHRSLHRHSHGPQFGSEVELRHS

Take “Ang II: main peptide of RAS, used as binding control (DRVYIHPF; Angiotensin-2; UniProt P01019 25-32, looked up)”: the “binding in kidney slices of MAS knockout mice” value (“binding … of MAS knockout mice” for short) in test [1] is on record as “inaltered”.
For `CC[C@H](C)[C@H](NC(=O)[C@H](Cc1ccc(O)cc1)NC(=O)[C@@H](N)C(C)C)C(=O)N[C@@H](Cc1cnc[nH]1)C(=O)N1CCC[C@H]1C(=O)N[C@@H](Cc1ccccc1)C(=O)O` [Ang IV], the “binding … of MAS knockout mice” value in test [1] is given as “inaltered”.
With “DRVYIHP [Ang-(1-7), Asp-Arg-Val-Tyr-Ile-His-Pro]”, in test [1], the “binding … of MAS knockout mice” value is “disappeared”. In the test with Wistar rats, the “duration of increase of PAM” value is listed as “approximately 10 min” and the “increase of PAM” value is 15 mmHg. Moreover, the antidiuretic effect result in test [2] is reported as “absent”. Moreover, in test [3], the “urine volume (antidiuresis)” value is given as “reduction of the urine volume”. Further, on ACE, the IC50 was roughly 1000 nM.
Turning to “D-[Ala^7]-Ang-(1-7) [D-Ala^7-Angiotensin-(1-7)]”, the “displacement of Ang-(1-7) binding in kidney slices” value in test [4] is “displaced”.
Still for that read-out and setting: as for “D-Pro7-Ang-(1-7) [D-Pro^7-Angiotensin-(1-7)]”, the entry is “displaced”.

One may read the IC50 as the concentration that gives 50% inhibition.
